According to patent publication US8192962B2, “Processes for detecting toxic substances” (Daikin Industries, Ltd., priority 2001, dated 2012):

System: Unknown protein yeast genes
Experiment: DNA chip mRNA expression in yeast, unknown protein yeast genes (Table 1)
Format: cell-based, Saccharomyces cerevisiae S288C
In short: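 Value is the scanned fluorescence intensity ratio of exposed versus chemical-free cells. Log-phase S288C yeast in YPD at 25° C. received one toxic substance for two hours, dosed to slow growth without killing; Cy3/Cy5-labeled cDNA from oligo-dT-purified mRNA was hybridized to a whole-genome chip at 65° C.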

Na2As [(1)]
The level of expressed mRNA in the presence of chemical substance/The level of expressed mRNA in the absence of chemical substance (yeast gene YKL195W, incubated two hours with chemical substance): 0.8 | The level of expressed mRNA in the presence of chemical substance/The level of expressed mRNA in the absence of chemical substance (yeast gene YKR091W, incubated two hours with chemical substance): 1.5 | The level of expressed mRNA in the presence of chemical substance/The level of expressed mRNA in the absence of chemical substance (yeast gene YLR054C, incubated two hours with chemical substance): 2.0 | The level of expressed mRNA in the presence of chemical substance/The level of expressed mRNA in the absence of chemical substance (yeast gene YLR149C, incubated two hours with chemical substance): 1.4 | The level of expressed mRNA in the presence of chemical substance/The level of expressed mRNA in the absence of chemical substance (yeast gene YLR152C, incubated two hours with chemical substance): 0.7 | The level of expressed mRNA in the presence of chemical substance/The level of expressed mRNA in the absence of chemical substance (yeast gene YLR194C, incubated two hours with chemical substance): 2.1 | The level of expressed mRNA in the presence of chemical substance/The level of expressed mRNA in the absence of chemical substance (yeast gene YLR324W, incubated two hours with chemical substance): 0.7 | The level of expressed mRNA in the presence of chemical substance/The level of expressed mRNA in the absence of chemical substance (yeast gene YLR350W, incubated two hours with chemical substance): 1.2 | The level of expressed mRNA in the presence of chemical substance/The level of expressed mRNA in the absence of chemical substance (yeast gene YLR387C, incubated two hours with chemical substance): 0.9 | The level of expressed mRNA in the presence of chemical substance/The level of expressed mRNA in the absence of chemical substance (yeast gene YLR460C): 2.1 | The level of expressed mRNA in the presence of chemical substance/The level of expressed mRNA in the absence of chemical substance (yeast gene YML117W, incubated two hours with chemical substance): 0.9 | The level of expressed mRNA in the presence of chemical substance/The level of expressed mRNA in the absence of chemical substance (yeast gene YMR009W, incubated two hours with chemical substance): 2.3 | The level of expressed mRNA in the presence of chemical substance/The level of expressed mRNA in the absence of chemical substance (yeast gene YMR067C, incubated two hours with chemical substance): 0.9 | The level of expressed mRNA in the presence of chemical substance/The level of expressed mRNA in the absence of chemical substance (yeast gene YMR090W): 6.9 | The level of expressed mRNA in the presence of chemical substance/The level of expressed mRNA in the absence of chemical substance (yeast gene YMR095C, incubated two hours with chemical substance): 1.1 | The level of expressed mRNA in the presence of chemical substance/The level of expressed mRNA in the absence of chemical substance (yeast gene YMR097C, incubated two hours with chemical substance): 1.5 | The level of expressed mRNA in the presence of chemical substance/The level of expressed mRNA in the absence of chemical substance (yeast gene YMR102C, incubated two hours with chemical substance): 1.0 | The level of expressed mRNA in the presence of chemical substance/The level of expressed mRNA in the absence of chemical substance (yeast gene YMR107W, incubated two hours with chemical substance): 5.0 | The level of expressed mRNA in the presence of chemical substance/The level of expressed mRNA in the absence of chemical substance (yeast gene YMR180C, incubated two hours with chemical substance): 1.2 | The level of expressed mRNA in the presence of chemical substance/The level of expressed mRNA in the absence of chemical substance (yeast gene YMR184W, incubated two hours with chemical substance): 1.3 | The level of expressed mRNA in the presence of chemical substance/The level of expressed mRNA in the absence of chemical substance (yeast gene YMR191W, incubated two hours with chemical substance): 1.3 | The level of expressed mRNA in the presence of chemical substance/The level of expressed mRNA in the absence of chemical substance (yeast gene YMR295C, incubated two hours with chemical substance): 1.7 | The level of expressed mRNA in the presence of chemical substance/The level of expressed mRNA in the absence of chemical substance (yeast gene YMR316W, incubated two hours with chemical substance): 3.2 | The level of expressed mRNA in the presence of chemical substance/The level of expressed mRNA in the absence of chemical substance (yeast gene YNL044W, incubated two hours with chemical substance): 1.3 | The level of expressed mRNA in the presence of chemical substance/The level of expressed mRNA in the absence of chemical substance (yeast gene YNL074C, incubated two hours with chemical substance): 0.9 | The level of expressed mRNA in the presence of chemical substance/The level of expressed mRNA in the absence of chemical substance (yeast gene YNL092W, incubated two hours with chemical substance): 1.3 | The level of expressed mRNA in the presence of chemical substance/The level of expressed mRNA in the absence of chemical substance (yeast gene YNL115C, incubated two hours with chemical substance): 0.7 | The level of expressed mRNA in the presence of chemical substance/The level of expressed mRNA in the absence of chemical substance (yeast gene YNL156C, incubated two hours with chemical substance): 1.1 | The level of expressed mRNA in the presence of chemical substance/The level of expressed mRNA in the absence of chemical substance (yeast gene YNL234W, incubated two hours with chemical substance): 1.1 | The level of expressed mRNA in the presence of chemical substance/The level of expressed mRNA in the absence of chemical substance (yeast gene YNL281W, incubated two hours with chemical substance): 1.0 | The level of expressed mRNA in the presence of chemical substance/The level of expressed mRNA in the absence of chemical substance (yeast gene YNL305C, incubated two hours with chemical substance): 0.9 | The level of expressed mRNA in the presence of chemical substance/The level of expressed mRNA in the absence of chemical substance (yeast gene YNR068C, incubated two hours with chemical substance): 1.2 | The level of expressed mRNA in the presence of chemical substance/The level of expressed mRNA in the absence of chemical substance (yeast gene YOL032W, incubated two hours with chemical substance): 1.3 | The level of expressed mRNA in the presence of chemical substance/The level of expressed mRNA in the absence of chemical substance (yeast gene YOL036W, incubated two hours with chemical substance): 0.8 | The level of expressed mRNA in the presence of chemical substance/The level of expressed mRNA in the absence of chemical substance (yeast gene YOL047C, incubated two hours with chemical substance): 1.4 | The level of expressed mRNA in the presence of chemical substance/The level of expressed mRNA in the absence of chemical substance (yeast gene YOL071W, incubated two hours with chemical substance): 1.3 | The level of expressed mRNA in the presence of chemical substance/The level of expressed mRNA in the absence of chemical substance (yeast gene YOL082W, incubated two hours with chemical substance): 1.0 | The level of expressed mRNA in the presence of chemical substance/The level of expressed mRNA in the absence of chemical substance (yeast gene YOL083W, incubated two hours with chemical substance): 1.1 | The level of expressed mRNA in the presence of chemical substance/The level of expressed mRNA in the absence of chemical substance (yeast gene YOL117W, incubated two hours with chemical substance): 1.0 | The level of expressed mRNA in the presence of chemical substance/The level of expressed mRNA in the absence of chemical substance (yeast gene YOL131W, incubated two hours with chemical substance): 1.0 | The level of expressed mRNA in the presence of chemical substance/The level of expressed mRNA in the absence of chemical substance (yeast gene YOL150C): 4.1 | The level of expressed mRNA in the presence of chemical substance/The level of expressed mRNA in the absence of chemical substance (yeast gene YOL162W, incubated two hours with chemical substance): 2.0 | The level of expressed mRNA in the presence of chemical substance/The level of expressed mRNA in the absence of chemical substance (yeast gene YOR019W, incubated two hours with chemical substance): 2.9 | The level of expressed mRNA in the presence of chemical substance/The level of expressed mRNA in the absence of chemical substance (yeast gene YOR197W, incubated two hours with chemical substance): 0.8 | The level of expressed mRNA in the presence of chemical substance/The level of expressed mRNA in the absence of chemical substance (yeast gene YPL087W, incubated two hours with chemical substance): 1.0 | The level of expressed mRNA in the presence of chemical substance/The level of expressed mRNA in the absence of chemical substance (yeast gene YPL196W, incubated two hours with chemical substance): 1.3 | The level of expressed mRNA in the presence of chemical substance/The level of expressed mRNA in the absence of chemical substance (yeast gene YPL206C, incubated two hours with chemical substance): 1.0 | The level of expressed mRNA in the presence of chemical substance/The level of expressed mRNA in the absence of chemical substance (yeast gene YPL222W, incubated two hours with chemical substance): 0.9 | The level of expressed mRNA in the presence of chemical substance/The level of expressed mRNA in the absence of chemical substance (yeast gene YPR023C, incubated two hours with chemical substance): 1.2 | The level of expressed mRNA in the presence of chemical substance/The level of expressed mRNA in the absence of chemical substance (yeast gene YPR151C, incubated two hours with chemical substance): 2.3
